One experiment relates to AKT phosphorylation. Kind of experiment: In vitro test of the inhibition effect on AKT phosphorylation (ELISA, Ramos cells). The experiment is classed as cell-based. On the procedure:
Experimental Example 2: In Vitro Test of the Inhibition Effect of the Example Compounds on AKT Phosphorylation
• 2.1 Experimental Purpose: Intracellular protein kinase AKT phosphorylation detected by experiment was measured by enzyme-linked immunosorbent assay (ELISA), and the inhibition of the compound on protein kinase AKT phosphorylation was evaluated by an index of the half-cell inhibition concentration (IC50) value of the compound. • 2.2 Experimental Materials: • Cell line: Ramos cell line • Cell culture medium (RPMI1640, Invitrogen #22400-105; 10% serum Gibco #10099-141; L-glutamine 1×, Gibco #25030-081) • Experimental medium (without serum, RPM11640, Invitrogen #22400-105; L-glutamine 1×, Gibco #25030) • Lysis buffer (trishydroxymethylaminomethane hydrochloride, Invitrogen15567-1000 ml; sodium chloride, domestic; sodium deoxycholate, Sigma30970-25 G; polyethylene glycol octylphenyl ether, SigmaT9284-100 ml; dodecane sodium sulfonate, SigmaL3771; ethylenediaminetetraacetic acid, Invitrogen15575-038-100 ml; ultrapure water, MilliQ) • Protease inhibitor (Roche, 4693159001-30/BOX) • Phosphatase inhibitor mixture 2 (Sigma, P5726-5 ML) • Phosphatase inhibitor mixture 3 (Sigma, P0044-5 ML) • Goat Anti-Human immunoglobulin M (F(ab′)2 Goat Anti-Human IgM) (Jackson Immuno Research-109-006-129) • Phosphorylated AKT assay kit (Phospho-AKT 1/2/3 (ser473)) (TGR Bioscience, EKT002) • 10× Hank's balanced salt solution (Gibco #14065-056) • 96-well cell plate (Greiner #655090) • Compound V-well dilution plate (Axygen #WITP02280) • CO2 incubator (Thermo #371) • Centrifuge (Eppendorf #581 OR) • Vi-cell cell counter (Beckman Coulter) • Pipette (Eppendorf) • Pipette (Greiner) • Pipetting gun (Eppendorf) • Multi-purpose microplate reader (Envision Reader) • 2.3 Experimental procedures and methods: • a) Cell Seeding (Ramos Cells) • 1) The medium was preheated in a 37° C. water bath. Suspended cells and their culture solution were aspirated, centrifuged at 1000 rpm for 5 minutes. • 2) Aspirated the cell culture medium, added 10 mL of pre-warmed medium to the centrifuge tube, blew off the resuspended cells, pipette 1 mL of the cell suspension, and counted with Vi-cell; • 3) The Ramos cells were diluted with a medium to a density of 5×10^6/mL, and the diluted cells were added to a 96-well cell culture plate (100 μL/well) using a lance. Placed the cell plates in a 37° C., 5% CO2 incubator for overnight. • b) Cell starvation: • 1) After cultured the inoculation cells for overnight, centrifuged at 1000 rpm for 5 minutes on the next day, aspirated the original medium by a lance, added serum-free experimental medium, placed the cell plates in a 37° C., 5% CO2 incubator, and starved for overnight. • c) Compound preparation and dosing: • 1) The compound was diluted with dimethyl sulfoxide to give an initial concentration of 5 mM. A triple gradient dilution was done with compound V dilution plate to make 10 concentration points. • 2) Took another new compound V-well dilution plate, added 198 ul of serum-free experimental medium to each well, and then added 2 ul of the diluted compound above to each well, and mixed with a lance. […]

In another experiment the target is T1, SYK kinase (Homo sapiens, UniProt P43405).
T1 construct: purchased Invitrogen PV3857
The experiment can be described thus: In vitro test of the inhibition effect on SYK kinase (HTRF). Type of experiment: biochemical. Particulars: tyrosine kinase 0.0156 ng/μL, substrate 0.2 uM, ATP 2 uM, 23° C. 1 hour, read-out: Inhibit SYK kinase IC50. On the procedure: Experimental Example 1: In Vitro Test of the Inhibition Effect of the Example Compounds on SYK Kinase
Adenosine triphosphate concentration was controlled at 2 uM. • 4) Loaded with a Multidrop automatic dispenser, and a mixture of tyrosinase solution and tyrosine kinase-substrate-biotin/adenosine triphosphate was added in an amount of 5 ul per well, and incubated at 23° C. for 1 hour. • c) Detection phase: • 1) Added 13.33 mL of ethylenediaminetetraacetic acid solution to the Detection Buffer in the kit, added the specified amount of […] (Eu)-labeled antibody and streptavidin XL-665, and prepared the detection solution. • 2) Loaded with a Multidrop automatic dispenser, and 10 uL of the detection solution per well, incubated at 23° C. for 1 hour. It terminated the reaction of the enzyme and substrate mixture. • 3) Reading after centrifugation on a multi-function microplate reader, • d) Data Analysis: Analyzed the data with XL-Fit, and calculated the IC50 value of the compound.
On the technique in general: Time-resolved FRET reads energy transfer from a long-lived donor to a nearby acceptor.

[1] abbreviates: Homo sapiens, Ramos, Ramos cell line, compound 1 hour, goat anti-human IgM 10 ug/ml for 10 minutes, Phospho-AKT 1/2/3 (ser473) ELISA, read-out: Inhibit AKT phosphorylation IC50.
The mark [2] stands for this setting: Homo sapiens, Ramos, read-out: Inhibit AKT phosphorylation IC50 (nM).
Setting [3] is: Ramos cell line, compound 1 hour, goat anti-human IgM 10 ug/ml for 10 minutes, Phospho-AKT 1/2/3 (ser473) ELISA, read-out: Inhibit AKT phosphorylation IC50.

As usually defined, the IC50 is the point on the concentration scale where inhibition reaches its midpoint.

Like-named read-outs stand apart in the source and are kept apart here.

Regarding `Cn1c(=O)c(Nc2ccc(N3CCOCC3)cc2)nc2ccc(-c3c[nH]cn3)cc21` [Example 31, 7-(1H-imidazol-4-yl)-1-methyl-3-((4-morpholinephenyl)amino)quinoxaline-2(1H)-one], the IC50 was found to be 132 nM in the experiment on AKT phosphorylation (setting [1]) and 81 nM at SYK kinase.
With `Cn1c(=O)c(Nc2ccc(N3CCCC(C(=O)O)C3)cc2)nc2ccc(-c3cn[nH]c3)cc21` (stereo not drawn) [Example 55, 1-(4-((4-methyl-3-oxo-6-(1H-pyrazol-4-yl)-3,4-dihydroquinoxalin-2-yl)amino)phenyl)piperidine-3-carboxylic acid], the IC50 came out at 116 nM with AKT phosphorylation (setting [2]) and 4.1 nM at SYK kinase.
Take `Cn1c(=O)c(Nc2ccc(C(C)(O)C(F)(F)F)cn2)cc2c(F)c(-c3cc[nH]n3)ccc21` (single isomer, unassigned) [Example 25, 5-Fluoro-1-methyl-6-(1H-pyrazol-3-yl)-3-((5-(1,1,1-trifluoro-2-hydroxypropan-2-yl)pyridine-2-yl)amino)quinoline-2(1H)-one]: the IC50 came to 121 nM in the experiment with AKT phosphorylation (setting [3]) and 8.9 nM on SYK kinase.
With `Cn1c(=O)c(Nc2ccccn2)cc2c(F)c(-c3cc[nH]n3)ccc21` [Example 15, 5-Fluoro-1-methyl-6-(1H-pyrazol-3-yl)-3-(pyridin-2-amine)-quinoline-2(1H)-one], the values for the concentration for half-maximal inhibition (IC50) in the experiment with AKT phosphorylation (setting [1]) and at SYK kinase were 425 nM and 101 nM, respectively.
Taken in the same sequence, the figures for `Cn1c(=O)c(Nc2ccc(N3CCC4(CC3)COC4)cn2)cc2c(F)c(-c3cc[nH]n3)ccc21` [Example 12, 5-Fluoro-1-methyl-3-[[5-(2-oxazole-7-azaspiro[3.5]nonane-7-yl)pyridin-2-yl]amino]-6-(1H-pyrazol-3)quinoline-2(1H)-one] were 750 nM and 114 nM.
As for `Cn1c(=O)c(Nc2ccc(N3CCOCC3)cn2)cc2cc(-c3cc[nH]n3)ccc21` [Example 2, 1-Methyl-3-((5-morpholinepyridin-2-yl)amino)-6-(1H-pyrazol-3-yl)quinoline-2(1H)-one], the results for the IC50 with AKT phosphorylation (setting [3]) and on SYK kinase were 750 nM and 204 nM, respectively.
Turning to `Cn1c(=O)c(Nc2ccc(N3CCNCC3)cc2)nc2ccc(-c3cn[nH]c3)cc21` [Example 39, 1-Methyl-3-((4-(piperazin-1-yl)phenyl)amino)-7-(1H-pyrazol-4-yl)quinoxaline-2(1H)-one], the IC50 in the experiment with AKT phosphorylation (setting [1]) came to 60.1 nM; on SYK kinase, 3.6 nM.
`Cn1c(=O)c(Nc2ccc(N3CCOCC3)cc2)nc2c(Cl)cc(-c3cn[nH]c3)cc21` [Example 41, 5-Chloro-1-methyl-3-((4-morpholinephenyl)amino)-7-(1H-pyrazol-4-yl)quinoxaline-2(1H)-one]: the values for the IC50 in the experiment with AKT phosphorylation (setting [1]) and at SYK kinase were 98.8 nM and 4.8 nM, respectively.
For the compound `Cn1c(=O)c(Nc2ccc(N3CCOCC3)cn2)cc2cc(-c3cc[nH]n3)c(F)cc21` [Example 6, 7-Fluoro-1-methyl-3-((5-morpholinepyridin-2-yl)amino)-6-(1H-pyrazol-3-yl)quinoline-2(1H)-one], the half-maximal inhibitory concentration (IC50) came out at 446 nM in the experiment on AKT phosphorylation (setting [2]) and 21.1 nM on SYK kinase.
`Cn1c(=O)c(Nc2ccc(N3CCOCC3)cn2)cc2c(F)c(-c3cc[nH]n3)c(F)cc21` [Example 8, 5,7-Difluoro-1-methyl-3-((5-morpholinopyridin-2-yl)amino)-6-(1H-pyrazol-3-yl)quinoline-2(1H)-one]: the IC50 was 188 nM with AKT phosphorylation (setting [1]) and 54.6 nM on SYK kinase.
The like results for `Cn1c(=O)c(Nc2ccc(C3(F)COC3)cn2)cc2c(F)c(-c3cc[nH]n3)ccc21` [Example 23, 5-Fluoro-3-[[5-(3-fluorooxetan-3-yl)pyridin-2-yl]amino]-1-methyl-6-(1H-pyrazol-3-yl)quinoline-2(1H)-one] were, in that order, 169 nM and 26.9 nM.
The like results for `Cn1c(=O)c(Nc2ccc(N3CCOCC3)cc2)nc2cc(F)c(-c3cn[nH]c3)cc21` [Example 45, 6-Fluoro-1-methyl-3-((4-morpholinephenyl)amino)-7-(1H-pyrazol-4-yl)quinoxaline-2(1H)-one] were, in that order, 83.3 nM and 20.2 nM.
